# Biological target: NAMPT (Homo sapiens, UniProt P43490)
# Assay: Assay for in vitro NAMPT activity via NMN assessment
# Assay type: biochemical
# Conditions: read-out: A: NAMPT enzyme inhibitory activity, IC50
# Method: The following were added to a well: 20 μL 2× test compound in Basic Buffer (0.02% BSA, 2 mM DTT, 12 mM MgCl2, 50 mM Tris pH7.5); 10 μL 8 μg/mL NAMPT, and 200 μM PRPP working solution (or PRPP working solution to background wells). 10 μL 100 μM NAM working solution was added to start the reaction. The plate was sealed and incubated for 45 minutes at 37° C. After incubation, 10 μL 20% acetophenone in DMSO, 10 μL 2N KOH, and 20 μL 88% formic acid were added. The plate was sealed and incubated for 30 minutes at 37° C. After incubation, fluorescence at Ex/Em 387/441 was read.
# (§1) In each table header, A: NAMPT enzyme inhibitory activity, IC50 (μM); B: Cellular NAD inhibitory activity, IC50 (μM); and C: change in NAD levels in response to test compound, shown as % of NAD activity in the absence of test compound. […] A percentage of 100 percent would indicate no increase or decrease in NAD levels as compared to that measured for untreated control cells, while a percentage of 50 percent would indicate a decrease in NAD levels of 50 percent as compared to that measured for untreated control cells.
# Sequence of NAMPT (P43490 whole entry, species assumed): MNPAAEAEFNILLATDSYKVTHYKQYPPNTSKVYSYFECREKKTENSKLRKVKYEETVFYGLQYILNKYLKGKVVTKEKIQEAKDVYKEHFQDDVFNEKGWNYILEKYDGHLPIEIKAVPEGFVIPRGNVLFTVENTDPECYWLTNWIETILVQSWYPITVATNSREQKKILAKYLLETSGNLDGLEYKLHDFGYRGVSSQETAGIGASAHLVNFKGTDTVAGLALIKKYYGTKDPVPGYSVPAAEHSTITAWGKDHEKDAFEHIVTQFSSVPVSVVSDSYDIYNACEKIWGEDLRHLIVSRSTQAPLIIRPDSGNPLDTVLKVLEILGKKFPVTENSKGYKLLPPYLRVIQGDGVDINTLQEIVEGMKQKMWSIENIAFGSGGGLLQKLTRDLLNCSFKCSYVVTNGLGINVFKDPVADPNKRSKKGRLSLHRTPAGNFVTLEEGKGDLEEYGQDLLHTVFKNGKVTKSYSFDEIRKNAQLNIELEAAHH
row,SMILES,IC50 [µM]
1,CN1CCN(C(=O)c2ccc3nc(-c4ccc(F)cc4)c(-c4cccc(CO)c4)nc3c2)CC1 [BC20240],≥ 25
2,C#CCNC(=O)c1ccc2nc(-c3ccc(F)cc3)c(-c3cccc(CN4CCCC4)c3)nc2c1 [BC20223],≥ 25
3,CN1CCN(Cc2cccc(-c3nc4cc(C(=O)N5CCN(C)CC5)ccc4nc3-c3ccc(F)cc3)c2)CC1 [BC20232],≥ 25
4,O=C1N(Cc2ccncc2)CCCN1c1ccc2nc(-c3ccc(F)cc3)c(-c3ccc(F)cc3)nc2c1 [BC20226],1 to 25
5,CS(=O)(=O)N1CCCC(NC(=O)Nc2cnc3nc(-c4ccc(F)cc4)c(-c4ccc(F)cc4)nc3c2)C1 (centres unmarked) [BC20256],1 to 25
6,COCC(=O)Nc1cccc(-c2nc3ccc(C(=O)N4CCN(C)CC4)cc3nc2-c2cccc(NC(=O)COC)c2)c1 [BC20221],≥ 25

# Next, values leading:
row,IC50 [µM],SMILES
1,≥ 25,CN(C)CC(=O)Nc1cccc(-c2nc3ccc(C(=O)N4CCN(C)CC4)cc3nc2-c2cccc(NC(=O)CN(C)C)c2)c1 [BC20286]
2,≥ 25,O=C(NC[C@H]1CCCNC1)c1ccc2nc(-c3ccc(F)cc3)c(-c3ccc(F)cc3)nc2c1 [BC20279]
3,1 to 25,O=C(Cc1cccnc1)NCc1ccc2nc(-c3ccc(F)cc3)c(-c3ccc(F)cc3)nc2c1 [BC20278]
4,≥ 25,COCCNC(=O)N1CCC[C@H](CNC(=O)c2ccc3nc(-c4ccc(F)cc4)c(-c4ccc(F)cc4)nc3c2)C1 [BC20282]
5,≥ 25,O=C1N(Cc2cccnc2)CCN1c1cnc2nc(-c3ccc(F)cc3)c(-c3ccc(F)cc3)nc2c1 [BC20291]
6,≥ 25,C#CCNC(=O)c1ccc2nc(-c3cccc(CNC(=O)COC)c3)c(-c3cccc(CNC(=O)COC)c3)nc2c1 [BC20275]
7,≥ 25,CN1CCCC(NC(=O)Nc2cnc3nc(-c4ccc(F)cc4)c(-c4ccc(F)cc4)nc3c2)C1 (centres unmarked) [BC20269]
8,≥ 25,C#CCNC(=O)c1ccc2nc(-c3cccc(NS(C)(=O)=O)c3)c(-c3cccc(NS(C)(=O)=O)c3)nc2c1 [BC20288]

# System: A431 cells
# Assay: Assay for total NADH and NAD+ measurements in cells
# Assay type: cell-based
# Set-up: C: change in NAD levels in response to test compound, shown as % of NAD activity in the absence of test compound: concentration or dose not given beside the values
# Conditions: percent of NAD level of untreated control cells (100 = no change)
# Method: 2,000 cells/well and, at the same time, test compounds dissolved in media at the desired concentration were added to each well. The treated cells were incubated overnight in C02 incubator. The cells were washed 6 times with PBS with 1 mM CaCl2) and 1 mM MgCl2. In the last wash, 10 μL of PBS with 1 mM CaCl2) and 1 mM MgCl2 per well were left in each well. Immediately thereafter, 10 μL 0.4% dodecyltrimethylammonium bromide (DTAB) in phosphate buffer pH 8.0 as added, and the plates were shaked at 1000 rpm for 5 minutes. 60 μL reaction mix was added, and fluorescence at Ex/Em 530/585 was immediately monitored. A linear increase should be achieved with 8 cycles every 92 seconds, 10 number of flashes/well/cycle. The reaction mix was prepared per the following table, respecting the amount and order in which each component was added:
# All assays were performed in A431 cells. Referring to the tables below, activity: “+” ≥25 μM, “++” ≥1 μM and <25 μM, and “+++”<1 μM.
# as §1
row,SMILES,"C: change in NAD levels in response to test compound, shown as % of NAD activity in the absence of test compound [%]"
1,N#Cc1ccc2nc(-c3ccc(F)cc3)c(-c3ccc(F)cc3)nc2c1 [BC19192],76
2,O=C(c1ccc2nc(-c3ccc(F)cc3)c(-c3ccc(F)cc3)nc2c1)N1CCN(CCO)CC1 [BC19513],49
3,Cc1ccc(S(=O)(=O)c2nc3cc(C(=O)N4CCN(C)CC4)ccc3nc2-c2ccc(F)cc2)cc1F [BC19307],31
4,CNC(=O)c1ccc2nc(-c3ccc(OC(F)(F)F)cc3)c(-c3ccc(OC(F)(F)F)cc3)nc2c1 [BC19447],50
5,Cc1nnc(-c2ccc3nc(-c4ccc(F)cc4)c(-c4ccc(F)cc4)nc3c2)n1C [BC19301],57
6,CN1CCN(C(=O)c2ccc3nc(-c4ccc(Cl)cc4)c(-c4ccc(Cl)cc4)nc3c2)CC1 [BC19450],78
7,N=C(NO)c1ccc2nc(-c3ccc(F)cc3)c(-c3ccc(F)cc3)nc2c1 [BC19194],45
8,CN1CCN(C(=O)c2ccc3nc(-c4ccc(F)cc4)c(S(=O)(=O)c4cccc(F)c4)nc3c2)CC1 [BC19395],71
9,O=C(Nc1ccc2nc(-c3ccc(F)cc3)c(-c3ccc(F)cc3)nc2c1)C1CCNCC1 [BC19251],0
10,CN1CCN(Cc2ccc3nc(-c4ccc(F)cc4)c(-c4ccc(F)cc4)nc3c2)CC1 [BC19577],41
11,C[C@H](Cl)C(=O)Nc1ccc2nc(-c3ccc(F)cc3)c(-c3ccc(F)cc3)nc2c1 [BC19315],89
12,OCCn1ncc(-c2ccc3nc(-c4ccc(F)cc4)c(-c4ccc(F)cc4)nc3c2)n1 [BC19404],65
